Test results taken from patent publication US20260217708A1, “FUSED BENZAZEPINE DERIVATIVES FOR USE IN THE TREATMENT OF CANCER AND EPILEPSY” (UCB BIOPHARMA SRL, priority 2023, published 2026).

Experiments:
system Xc^− [1] = biological target: T1, system Xc^− (Homo sapiens, UniProt Q9UPY5); experiment: [^14C]L-Cystine uptake assay; assay type: cell-based; set-up: endogenous in cells; host or cells: H4 cells; settings: H4 cells, sodium-free HEPES buffer, 0.5 μM L-[14C]Cystine and 4.5 μM L-Cystine, 1 hour at 37° C.; read-out: pIC50 [^14C] L-Cystine uptake assay (converted)
T1 sequence (Q9UPY5 1-501): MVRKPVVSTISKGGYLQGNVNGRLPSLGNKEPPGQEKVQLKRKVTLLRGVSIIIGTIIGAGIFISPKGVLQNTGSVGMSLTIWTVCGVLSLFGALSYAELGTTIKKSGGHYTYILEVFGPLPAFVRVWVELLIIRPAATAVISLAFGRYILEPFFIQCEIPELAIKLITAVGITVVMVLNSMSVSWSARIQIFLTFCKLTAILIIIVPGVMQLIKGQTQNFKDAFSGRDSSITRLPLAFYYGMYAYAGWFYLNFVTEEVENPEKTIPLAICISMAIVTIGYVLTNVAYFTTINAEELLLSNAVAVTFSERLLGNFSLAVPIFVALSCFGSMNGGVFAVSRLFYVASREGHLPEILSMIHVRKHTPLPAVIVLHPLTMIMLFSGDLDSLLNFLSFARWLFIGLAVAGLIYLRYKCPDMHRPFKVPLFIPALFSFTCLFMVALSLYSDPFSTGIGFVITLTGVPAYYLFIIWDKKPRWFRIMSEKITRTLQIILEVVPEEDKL
T1 sequence (P08195 1-529 partner): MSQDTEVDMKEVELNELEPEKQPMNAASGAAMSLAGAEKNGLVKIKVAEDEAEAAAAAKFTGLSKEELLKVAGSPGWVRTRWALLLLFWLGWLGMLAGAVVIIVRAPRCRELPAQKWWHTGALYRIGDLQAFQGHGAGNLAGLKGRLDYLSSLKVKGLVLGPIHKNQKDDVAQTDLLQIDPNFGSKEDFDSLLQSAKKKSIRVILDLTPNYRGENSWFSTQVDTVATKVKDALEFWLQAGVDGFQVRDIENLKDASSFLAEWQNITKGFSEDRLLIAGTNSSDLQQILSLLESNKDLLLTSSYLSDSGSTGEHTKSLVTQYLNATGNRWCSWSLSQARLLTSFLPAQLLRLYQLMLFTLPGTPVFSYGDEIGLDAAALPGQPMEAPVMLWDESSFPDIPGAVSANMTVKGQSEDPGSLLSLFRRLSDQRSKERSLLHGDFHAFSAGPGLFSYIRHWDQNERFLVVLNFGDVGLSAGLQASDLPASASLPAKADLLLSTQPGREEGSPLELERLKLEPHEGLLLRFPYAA
How it was run: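 Compound effect is given as pIC50, taken between controls of 1% DMSO and 50 μM Erastin. Human H4 cells were pretreated 15 min with compound in sodium-free buffer, then took up 0.5 μM [14C]cystine with 4.5 μM cold cystine for 1 hour at 37° C, read by scintillation proximity counting.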

system Xc^− [2] = biological target: T1, system Xc^−; experiment: Cystine-induced glutamate release assay; assay type: cell-based; set-up: endogenous in cells; host or cells: H4 cells; settings: H4 cells, sodium-free HEPES buffer, 50 μM L-Cystine, 2 hours, Amplex Red glutamate readout; read-out: pIC50 Cystine-induced glutamate release assay (converted)
How it was run: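 IC50 (reported as pIC50) normalized to DMSO 1% and Erastin 50 μM controls, from Amplex Red fluorescence of glutamate exported into supernatant. H4 cells were washed into sodium-free buffer to exclude EAAT transport, then given compound with 50 μM L-cystine for 2 h in the incubator.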

SMILES	IC50 (system Xc^− [1])	IC50 (system Xc^− [2])
Cc1cc2c(c(F)n1)-c1cccnc1[C@@H](C)C(=O)N2CC(=O)Nc1ccc(C2(F)CC2)c(F)c1 [#248, 2-[(10R)-3-fluoro-5,10-dimethyl-9-oxo-4,8,12-triazatricyclo[9.4.0.0^2,7]pentadeca-1(11),2(7),3,5,12,14-hexaen-8-yl]-N-[3-fluoro-4-(1-fluorocyclopropyl)phenyl]acetamide]	< 15.8 nM	< 15.8 nM
Cc1cc2c(c(F)n1)-c1cccnc1[C@@H](C)C(=O)N2CC(=O)Nc1ccc(Cl)c(F)c1F [#249, N-(4-chloro-2,3-difluoro-phenyl)-2-[(10R)-3-fluoro-5,10-dimethyl-9-oxo-4,8,12-triazatricyclo[9.4.0.0^2,7]pentadeca-1(15),2,4,6,11,13-hexaen-8-yl]acetamide]	100 to 501 nM	39.8 to 100 nM
Cc1cc2c(c(=O)n1C)-c1cccnc1C(C)C(=O)N2CC(=O)Nc1ccc(Cl)c(F)c1 (stereo not drawn) [#254, N-(4-chloro-3-fluoro-phenyl)-2-(4,5,10-trimethyl-3,9-dioxo-4,8,12-triazatricyclo[9.4.0.0^2,7]pentadeca-1(15),2(7),5,11,13-pentaen-8-yl)acetamide]	< 15.8 nM	< 15.8 nM
Cc1cc2c(c(=O)n1C)-c1ccc(F)cc1C(C)C(=O)N2CC(=O)Nc1ccc(C(F)F)cc1 (stereo not drawn) [#256, N-[4-(difluoromethyl)phenyl]-2-(9-fluoro-2,3,7-trimethyl-1,6-dioxo-7H-pyrido[4,3-d][3]benzazepin-5-yl)acetamide]	< 15.8 nM	< 15.8 nM
COCCN(C)c1cc2c(c(F)n1)-c1cccnc1C(C)C(=O)N2CC(=O)Nc1ccc(Cl)c(F)c1 (stereo not drawn) [#264, N-(4-chloro-3-fluoro-phenyl)-2-[3-fluoro-5-[2-methoxyethyl(methyl)amino]-10-methyl-9-oxo-4,8,12-triazatricyclo[9.4.0.0^2,7]pentadeca-1(15),2(7),3,5,11,13-hexaen-8-yl]acetamide]	< 15.8 nM	15.8 to 39.8 nM
CC1C(=O)N(CC(=O)Nc2ccc(C(F)F)cc2)c2cc(N3CCOCC3)nc(F)c2-c2cccnc21 (stereo not drawn) [#271, N-[4-(difluoromethyl)phenyl]-2-(3-fluoro-10-methyl-5-morpholino-9-oxo-4.8,12-triazatricyclo[9.4.0.0^2,7]pentadeca-1(15),2,4,6,11,13-hexaen-8-yl)acetamide]	< 15.8 nM	15.8 to 39.8 nM
CC1C(=O)N(CC(=O)Nc2ccc(C(F)F)cc2)c2cc(N3CC[C@H]3CO)nc(F)c2-c2cccnc21 (stereo partly drawn) [#272, N-[4-(difluoromethyl)phenyl]-2-[3-fluoro-5-[(2S)-2-(hydroxymethyl)azetidin-1-yl]-10-methyl-9-oxo-4,8,12-triazatricyclo[9.4.0.0^2,7]pentadeca-1(15),2,4,6,11,13-hexaen-8-yl]acetamide]	15.8 to 39.8 nM	15.8 to 39.8 nM
CC1C(=O)N(CC(=O)Nc2ccc(C(F)F)cc2)c2cc(N3CC[C@@H]3CO)nc(F)c2-c2cccnc21 (stereo partly drawn) [#273, N-[4-(difluoromethyl)phenyl]-2-[3-fluoro-5-[(2R)-2-(hydroxymethyl)azetidin-1-yl]-10-methyl-9-oxo-4,8,12-triazatricyclo[9.4.0.0^2,7]pentadeca-1(15),2,4,6,11,13-hexaen-8-yl]acetamide]	< 15.8 nM	< 15.8 nM
O=C(CN1C(=O)Cc2ncccc2-c2c1cc(N1CC3(CC3)C1)nc2F)Nc1ccc(C(F)F)cc1 [#294, 2-[5-(5-azaspiro[2.3]hexan-5-yl)-3-fluoro-9-oxo-4,8,12-triazatricyclo[9.4.0.0^2,7]pentadeca-1(15),2,4,6,11,13-hexaen-8-yl]-N-[4-(difluoromethyl)phenyl]acetamide]	39.8 to 100 nM	15.8 to 39.8 nM
O=C(CN1C(=O)Cc2ncccc2-c2c1cc(N1CC(F)(F)C1)nc2F)Nc1ccc(C(F)F)cc1 [#295, 2-[5-(3,3-difluoroazetidin-1-yl)-3-fluoro-9-oxo-4,8,12-triazatricyclo[9.4.0.0^2,7]pentadeca-1(15),2,4,6,11,13-hexaen-8-yl]-N-[4-(difluoromethyl)phenyl]acetamide]	< 15.8 nM	< 15.8 nM
O=C(CN1C(=O)Cc2cc(F)ccc2-c2c1cc(N1CC(F)(F)C1)nc2F)Nc1ccc(C(F)F)cc1 [#296, 2-[3-(3,3-difluoroazetidin-1-yl)-1,9-difluoro-6-oxo-7H-pyrido[4,3-d][3]benzazepin-5-yl]-N-[4-(difluoromethyl)phenyl]acetamide]	15.8 to 39.8 nM	39.8 to 100 nM
COc1ccc2c(c1)N(CC(=O)Nc1ccc(Cl)c(F)c1)C(=O)C(C)c1ncccc1-2 (stereo not drawn) [#306, N-(4-chloro-3-fluoro-phenyl)-2-(9-methoxy-5-methyl-6-oxo-5H-pyrido[2,3-d][1]benzazepin-7-yl)acetamide]	39.8 to 100 nM	15.8 to 39.8 nM
CC1C(=O)N(CC(=O)Nc2ccc(Cl)c(F)c2)c2cc(C#N)ccc2-c2cccnc21 (stereo not drawn) [#311, N-(4-chloro-3-fluoro-phenyl)-2-(9-cyano-5-methyl-6-oxo-5H-pyrido[2,3-d][1]benzazepin-7-yl)acetamide]	39.8 to 100 nM	< 15.8 nM
CC1C(=O)N(CC(=O)Nc2ccc(Cl)c(F)c2)c2cc(C3CC3)c(=O)n(C)c2-c2ccccc21 (stereo not drawn) [#321, N-(4-chloro-3-fluoro-phenyl)-2-(3-cyclopropyl-1,7-dimethyl-2,6-dioxo-7H-pyrido[3,2-d][3]benzazepin-5-yl)acetamide]	15.8 to 39.8 nM	15.8 to 39.8 nM
CC1C(=O)N(CC(=O)Nc2ccc(C(F)F)cc2)c2cc(C3CC3)c(=O)n(C)c2-c2ccccc21 (stereo not drawn) [#322, 2-(3-cyclopropyl-1,7-dimethyl-2,6-dioxo-7H-pyrido[3,2-d][3]benzazepin-5-yl)-N-[4-(difluoromethyl)phenyl]acetamide]	39.8 to 100 nM	15.8 to 39.8 nM
O=C(CN1C(=O)Cc2ccccc2-c2c1cc(C(F)F)nc2Cl)Nc1ccc(C(F)F)cc1 [#339, 2-[1-chloro-3-(difluoromethyl)-6-oxo-7H-pyrido[4,3-d][3]benzazepin-5-yl]-N-[4-(difluoromethyl)phenyl]acetamide]	< 15.8 nM	< 15.8 nM
CC1C(=O)N(CC(=O)Nc2ccc(Cl)c(F)c2)c2cc(C(F)F)ccc2-c2cccnc21 (stereo not drawn) [#341, N-(4-chloro-3-fluoro-phenyl)-2-[9-(difluoromethyl)-5-methyl-6-oxo-5H-pyrido[2,3-d][1]benzazepin-7-yl]acetamide]	39.8 to 100 nM	15.8 to 39.8 nM
CC1C(=O)N(CC(=O)Nc2ccc(Cl)c(F)c2)c2cc(CN3CC(C)(O)C3)ccc2-c2cccnc21 (stereo not drawn) [#343, N-(4-chloro-3-fluoro-phenyl)-2-[9-[(3-hydroxy-3-methyl-azetidin-1-yl)methyl]-5-methyl-6-oxo-5H-pyrido[2,3d][1]benzazepin-7-yl]acetamide]	100 to 501 nM	39.8 to 100 nM
CC1C(=O)N(CC(=O)Nc2ccc(Cl)c(F)c2)c2cc(CN3CC(F)(F)C3)ccc2-c2cccnc21 (stereo not drawn) [#344, N-(4-chloro-3-fluoro-phenyl)-2-[9-[(3,3-difluoroazetidin-1-yl)methyl]-5-methyl-6-oxo-5H-pyrido[2,3-d][1]benzazepin-7-yl]acetamide]	100 to 501 nM	39.8 to 100 nM
CC1C(=O)N(CC(=O)Nc2ccc(Cl)c(F)c2)c2cc(C3CN(CC(F)F)C3)cc(F)c2-c2cccnc21 (stereo not drawn) [#345, N-(4-chloro-3-fluoro-phenyl)-2-[9-[1-(2,2-difluoroethyl)azetidin-3-yl]-11-fluoro-5-methyl-6-oxo-5H-pyrido[2,3-d][1]benzazepin-7-yl]acetamide]	15.8 to 39.8 nM	15.8 to 39.8 nM
CC1C(=O)N(CC(=O)Nc2ccc(C(F)F)cc2)c2cc(C3CC3C(F)(F)F)cc(F)c2-c2cccnc21 (stereo not drawn) [#346, N-[4-(difluoromethyl)phenyl]-2-[11-fluoro-5-methyl-6-oxo-9-[2-(trifluoromethyl)cyclopropyl]-5H-pyrido[2,3-d][1]benzazepin-7-yl]acetamide]	39.8 to 100 nM	39.8 to 100 nM
